For 23 compounds, Ieq results are on record in patent publication US11098035B2, “Compounds, compositions, and methods for increasing CFTR activity” (Proteostasis Therapeutics, Inc., priority 2014, dated 2021).

Where a name gives a salt, the structure may show the parent alone.

T1 sequence (P13569 with tags, fused parts or gaps DEL508-508): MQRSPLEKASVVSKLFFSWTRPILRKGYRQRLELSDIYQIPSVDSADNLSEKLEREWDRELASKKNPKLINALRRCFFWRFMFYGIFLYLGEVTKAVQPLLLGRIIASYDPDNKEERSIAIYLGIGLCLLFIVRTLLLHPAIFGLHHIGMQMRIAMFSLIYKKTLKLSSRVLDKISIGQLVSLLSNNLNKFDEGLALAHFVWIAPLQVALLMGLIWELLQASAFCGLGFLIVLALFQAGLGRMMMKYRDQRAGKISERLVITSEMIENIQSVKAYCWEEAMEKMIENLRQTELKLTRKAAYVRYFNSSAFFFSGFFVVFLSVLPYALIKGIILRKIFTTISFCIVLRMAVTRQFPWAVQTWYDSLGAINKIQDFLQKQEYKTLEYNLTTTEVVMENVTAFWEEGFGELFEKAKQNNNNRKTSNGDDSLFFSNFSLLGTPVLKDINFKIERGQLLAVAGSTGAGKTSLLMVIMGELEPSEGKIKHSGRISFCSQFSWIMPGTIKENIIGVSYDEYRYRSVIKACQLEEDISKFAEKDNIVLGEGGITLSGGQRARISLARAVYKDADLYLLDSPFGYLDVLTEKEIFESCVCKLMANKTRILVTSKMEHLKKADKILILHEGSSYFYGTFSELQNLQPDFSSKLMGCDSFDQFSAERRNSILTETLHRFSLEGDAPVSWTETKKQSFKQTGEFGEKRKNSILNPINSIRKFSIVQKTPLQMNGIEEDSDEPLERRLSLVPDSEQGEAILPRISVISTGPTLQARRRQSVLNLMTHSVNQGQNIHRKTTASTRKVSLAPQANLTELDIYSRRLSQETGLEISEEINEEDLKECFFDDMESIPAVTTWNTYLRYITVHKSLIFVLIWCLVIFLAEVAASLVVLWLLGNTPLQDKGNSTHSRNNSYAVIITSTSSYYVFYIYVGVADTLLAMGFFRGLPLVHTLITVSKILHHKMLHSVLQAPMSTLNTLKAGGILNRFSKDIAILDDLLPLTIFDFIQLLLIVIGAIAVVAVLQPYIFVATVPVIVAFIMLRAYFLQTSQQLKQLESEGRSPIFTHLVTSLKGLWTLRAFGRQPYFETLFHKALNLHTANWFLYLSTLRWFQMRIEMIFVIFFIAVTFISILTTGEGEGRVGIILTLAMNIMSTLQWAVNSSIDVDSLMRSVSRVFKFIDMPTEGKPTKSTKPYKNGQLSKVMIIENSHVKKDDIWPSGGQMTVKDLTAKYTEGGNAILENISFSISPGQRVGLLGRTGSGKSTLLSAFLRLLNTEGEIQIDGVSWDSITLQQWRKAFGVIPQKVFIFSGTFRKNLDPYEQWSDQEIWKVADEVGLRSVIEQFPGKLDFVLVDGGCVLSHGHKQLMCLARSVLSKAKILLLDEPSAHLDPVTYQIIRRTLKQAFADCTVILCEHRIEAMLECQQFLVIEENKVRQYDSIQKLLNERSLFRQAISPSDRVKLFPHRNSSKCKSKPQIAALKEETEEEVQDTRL

The first assay concerns the target T1, ΔF508-CFTR (Homo sapiens, UniProt P13569, DEL508-508).
T1 construct: Primary lung epithelial cells homozygous for the Cystic Fibrosis-causing ΔF508 mutation were differentiated for a minimum of 4 weeks; endogenous in cells; host or cells: primary human bronchial (lung) epithelial cells (hBE) homozygous for ΔF508, differentiated at an air-liquid interface
The assay is described as follows: hBE Equivalent Current (Ieq) Assay. It is filed as cell-based. The note with it: compound at 10 uM and VX-809 at 1 uM, activity as % of VX-809 (1 uM); AUC of equivalent chloride current; primary lung epithelial cells homozygous for ΔF508, 24 h treatment. The procedure: Primary lung epithelial cells homozygous for the Cystic Fibrosis-causing ΔF508 mutation were differentiated for a minimum of 4 weeks in an air-liquid interface on Costar 24 well HTS filter plates prior to the equivalent current (Ieq) measurements. Cells were apically mucus-washed for 30 minutes 24 h prior to treatment with compounds. The basolateral media was removed and replaced with media containing the compound of interest diluted to its final concentration from DMSO stocks. Treated cells were incubated at 37° C. and 5% CO2 for 24 hours. At the end of the treatment period, the media was changed to the Ieq experimental solution for 30 minutes before the experiment and plates are maintained in a CO2-free incubator during this period. The plates containing the cells were then placed in pre-warmed heating blocks at 36° C.±0.5 for 15 minutes before measurements are taken. The transepithelial voltage (VT) and conductance (GT) were measured using a custom 24 channel current clamp (TECC-24) with 24 well electrode manifold. The Ieq assay measurements were made following additions with standardized time periods: • 1. The baseline VT and GT values were measured for approximately 20 minutes. • 2. Benzamil was added to block ENaC for 15 minutes. • 3. Forskolin plus VX-770 were added to maximally activate ΔF508-CFTR for 27 minutes. • 4. Bumetanide was added to inhibit the NaK2Cl cotransporter and shut-off secretion of chloride.
The activity data captured was the area under the curve (AUC) for the traces of the equivalent chloride current. The AUC was collected from the time of the forskolin/VX-770 addition until the inhibition by bumetanide addition. Correction in response to compound treatment was scored as the increase in the AUC for compound-treated samples over that of vehicle-treated samples.
The results are shown below in Table 2. ++ indicates activity ≥25% run at 10 uM of VX-809 at 1 uM, + indicates activity 10 to <25% run at 10 uM of VX-809 at 1 uM, **indicates activity ≥200% of VX-809 (1 uM) with compound at 10 uM and VX-809 at 1 uM; * indicates activity 100-200% of VX-809 (1 uM) with compound at 10 uM and VX-809 at 1 uM. ^## indicates activity ≥200% of VX-809 (3 uM) with compound at 10 uM and VX-809 at 3 uM; ^# indicates activity 100-200% of VX-809 (3 uM) with compound at 10 uM and VX-809 at 3 uM.
As for `C[C@@H](O)c1nnc(C[C@H]2C[C@@H](NC(=O)c3cc(-c4ccccc4)no3)C2)s1` [Example 41, 3-Phenyl-N-[(1s,3s)-3-([5-[(1R)-1-hydroxyethyl]-1,3,4-thiadiazol-2-yl]methyl)cyclobutyl]-1,2-oxazole-5-carboxamide], the Ieq result is “** (**indicates activity ≥200% of VX-809 (1 uM) with compound at 10 uM and VX-809 at 1 uM)”. As to `O=C(NC1CC(c2nnc(C3COC3)o2)C1)c1cc(-c2ccccc2)no1` (stereo not drawn) [Example 22, N-trans-3-(5-(oxetan-3-yl)-1,3,4-oxadiazol-2-yl)cyclobutyl)-3-phenylisoxazole-5-carboxamide], the Ieq entry was “* (* indicates activity 100-200% of VX-809 (1 uM) with compound at 10 uM and VX-809 at 1 uM)”. Same read-out and setting: the value for `CN1CC(c2nnc([C@H]3C[C@H](NC(=O)c4cc(-c5ccccc5)no4)C3)o2)C1` [Example 21, N-(trans-3-(5-(1-methylazetidin-3-yl)-1,3,4-oxadiazol-2-yl)cyclobutyl)-3-phenylisoxazole-5-carboxamide trifluoroacetate] was “* (* indicates activity 100-200% of VX-809 (1 uM) with compound at 10 uM and VX-809 at 1 uM)”; that for `C[C@@H](O)c1nnc(C[C@H]2C[C@@H](NC(=O)c3cc(-c4ccc(F)cc4)no3)C2)s1` [Example 43, 3-(4-Fluorophenyl)-N-[(1s,3s)-3-([5-[(1R)-1-hydroxyethyl]-1,3,4-thiadiazol-2-yl]methyl)cyclobutyl]-1,2-oxazole-5-carboxamide] was “** (**indicates activity ≥200% of VX-809 (1 uM) with compound at 10 uM and VX-809 at 1 uM)”; that for `C[C@@H](O)c1nnc(CC2CC(NC(=O)c3cc(-c4ccccc4)no3)C2)s1` (stereo partly drawn) [Example 42, 3-Phenyl-N-[(1r,3r)-3-([5-[(1R)-1-hydroxyethyl]-1,3,4-thiadiazol-2-yl]methyl)cyclobutyl]-1,2-oxazole-5-carboxamide] was “* (* indicates activity 100-200% of VX-809 (1 uM) with compound at 10 uM and VX-809 at 1 uM)”. The same measure, in the same setting: with `O=C(N[C@H]1C[C@H](c2nnc(C3CN(CC4CCC4)C3)o2)C1)c1cc(-c2ccccc2)no1` [Example 27, N-(trans-3-(5-(1-(cyclobutylmethyl)azetidin-3-yl)-1,3,4-oxadiazol-2-yl)cyclobutyl)-3-phenylisoxazole-5-carboxamide] the entry was “* (* indicates activity 100-200% of VX-809 (1 uM) with compound at 10 uM and VX-809 at 1 uM)”; with `C[C@@H](O)c1nnc(CC2CC(NC(=O)c3cc(-c4ccccc4)no3)C2)o1` (stereo partly drawn) [Example 37, N-((1S,3s)-3-((5-((R)-1-hydroxyethyl)-1,3,4-oxadiazol-2-yl)methyl)cyclobutyl)-3-phenylisoxazole-5-carboxamide], “** (**indicates activity ≥200% of VX-809 (1 uM) with compound at 10 uM and VX-809 at 1 uM)”; with `C[C@H](O)c1cn(C[C@H]2C[C@@H](NC(=O)c3cc(-c4ccccc4)no3)C2)nn1` [Example 58, 3-Phenyl-N-[(1s,3s)-3-([4-[(1S)-1-hydroxyethyl]-1H-1,2,3-triazol-1-yl]methyl)cyclobutyl]-1,2-oxazole-5-carboxamide], “* (* indicates activity 100-200% of VX-809 (1 uM) with compound at 10 uM and VX-809 at 1 uM)”.

Take `O=C(N[C@H]1C[C@@H](n2nncc2CO)C1)c1cc(-c2ccccc2)no1` [Example 28, N-(cis-3-(5-(hydroxymethyl)-1H-1,2,3-triazol-1-yl)cyclobutyl)-3-phenylisoxazole-5-carboxamide]: the Ieq entry was “** (**indicates activity ≥200% of VX-809 (1 uM) with compound at 10 uM and VX-809 at 1 uM)”. The same measure, in the same setting: the value for `C[C@H](O)c1cnnn1C[C@H]1C[C@@H](NC(=O)c2cc(-c3ccccc3)no2)C1` [Example 57, 3-Phenyl-N-[(1s,3s)-3-([5-[(1S)-1-hydroxyethyl]-1H-1,2,3-triazol-1-yl]methyl)cyclobutyl]-1,2-oxazole-5-carboxamide] was “** (**indicates activity ≥200% of VX-809 (1 uM) with compound at 10 uM and VX-809 at 1 uM)”; that for `C[C@@H](OCC1CN(C)C1)c1nnc([C@H]2C[C@H](NC(=O)c3cc(-c4ccccc4)no3)C2)o1` [Example 20, N-(trans-3-(5-((R)-1-((1-methylazetidin-3-yl)methoxy)ethyl)-1,3,4-oxadiazol-2-yl)cyclobutyl)-3-phenylisoxazole-5-carboxamide] was “* (* indicates activity 100-200% of VX-809 (1 uM) with compound at 10 uM and VX-809 at 1 uM)”. Take `CN1CCC(N2CC(c3nnc(C4CC(NC(=O)c5cc(-c6ccccc6)no5)C4)o3)C2)CC1` (stereo not drawn) [Example 24, N-cis-(3-(5-(1-(1-methylpiperidin-4-yl)azetidin-3-yl)-1,3,4-oxadiazol-2-yl)cyclobutyl)-3-phenylisoxazole-5-carboxamide]: the Ieq entry was “* (* indicates activity 100-200% of VX-809 (1 uM) with compound at 10 uM and VX-809 at 1 uM)”. `C[C@@H](O)c1nnc([C@H]2C[C@H](NC(=O)c3onc(-c4ccccc4)c3F)C2)o1` [Example 50, 4-Fluoro-3-phenyl-N-[(1r,3r)-3-[5-[(1R)-1-hydroxyethyl]-1,3,4-oxadiazol-2-yl]cyclobutyl]-1,2-oxazole-5-carboxamide]: the Ieq entry is “* (* indicates activity 100-200% of VX-809 (1 uM) with compound at 10 uM and VX-809 at 1 uM)”.

In the case of `C[C@@H](O)c1nnc(C[C@H]2C[C@H](NC(=O)c3cc(-c4cccs4)no3)C2)o1` [Example 46, N-[(1r,3r)-3-([5-[(1R)-1-Hydroxyethyl]-1,3,4-oxadiazol-2-yl]methyl)cyclobutyl]-3-(thiophen-2-yl)-1,2-oxazole-5-carboxamide], the Ieq result is “* (* indicates activity 100-200% of VX-809 (1 uM) with compound at 10 uM and VX-809 at 1 uM)”. The same measure, in the same setting: with `CO[C@H](C)c1nnc([C@H]2C[C@H](NC(=O)c3cc(-c4ccccc4)no3)C2)o1` [Example 14, N-(trans-3-(5-((R)-1-methoxyethyl)-1,3,4-oxadiazol-2-yl)cyclobutyl)-3-phenylisoxazole-5-carboxamide] the entry was “* (* indicates activity 100-200% of VX-809 (1 uM) with compound at 10 uM and VX-809 at 1 uM)”; with `C[C@@H](O)c1nnc([C@H]2C[C@H](NC(=O)c3cc(-c4ccc(F)cc4)no3)C2)o1` [Example 36, 3-(4-fluorophenyl)-N-(trans-3-(5-((R)-1-hydroxyethyl)-1,3,4-oxadiazol-2-yl)cyclobutyl)isoxazole-5-carboxamide], “* (* indicates activity 100-200% of VX-809 (1 uM) with compound at 10 uM and VX-809 at 1 uM)”.

The same assay, now with this note: compound run at 10 uM, activity relative to VX-809 at 1 uM; AUC of equivalent chloride current; primary lung epithelial cells homozygous for ΔF508, 24 h treatment.
In the case of `O=C(NCCN1CCOCC1)c1cc(-c2ccccc2)co1` [Example 10, N-(2-morpholinoethyl)-4-phenylfuran-2-carboxamide], the Ieq entry is reported as “+ (+ indicates activity 10 to <25% run at 10 uM of VX-809 at 1 uM)”. As for `COCCNC(=O)c1cc(-c2ccccc2)no1` [Example 1, N-(2-methoxyethyl)-3-phenylisoxazole-5-carboxamide], the Ieq entry was “++ (++ indicates activity ≥25% run at 10 uM of VX-809 at 1 uM)”. As for `O=C(NCCCn1ccnc1)c1cc(-c2ccccc2)no1` [Example 4, N-(3-(1H-imidazol-1-yl)propyl)-3-phenylisoxazole-5-carboxamide], the Ieq result was “+ (+ indicates activity 10 to <25% run at 10 uM of VX-809 at 1 uM)”. Same read-out and setting: the value for `COCCNC(=O)c1cc(-c2ccccc2)co1` [Example 8, N-(2-methoxyethyl)-4-phenylfuran-2-carboxamide] was “+ (+ indicates activity 10 to <25% run at 10 uM of VX-809 at 1 uM)”.

On to `O=C(NCCN1CCOCC1)c1cc(-c2ccccc2)no1` [Example 3, N-(2-morpholinoethyl)-3-phenylisoxazole-5-carboxamide], for which the Ieq entry is reported as “++ (++ indicates activity ≥25% run at 10 uM of VX-809 at 1 uM)”. On to `O=C(NCCCn1ccnc1)c1cc(-c2ccccc2)co1` [Example 11, N-(3-(1H-imidazol-1-yl)propyl)-4-phenylfuran-2-carboxamide], for which the Ieq result is recorded as “++ (++ indicates activity ≥25% run at 10 uM of VX-809 at 1 uM)”. For `O=C(NCC1CCCO1)c1cc(-c2ccccc2)no1` (centres unmarked) [Example 2, 3-phenyl-N-((tetrahydrofuran-2-yl)methyl)isoxazole-5-carboxamide], the Ieq result is “++ (++ indicates activity ≥25% run at 10 uM of VX-809 at 1 uM)”.
